17 molecules from ChEMBL document CHEMBL4177607, “Antibacterial constituents of the plant family Amaryllidaceae” (2017) can be followed below.

The subject of test [1] is Escherichia coli. Description: Antibacterial activity against Escherichia coli assessed as diameter of inhibition zone at 3 mg/ml. Format: functional. Conditions: read-out: DIZ.
In test [2] the test system is Staphylococcus aureus. Description: Antibacterial activity against Staphylococcus aureus assessed as diameter of inhibition zone at 3 mg/ml. Conditions: read-out: DIZ. The test is classed as functional.
Test [3] concerns Agrobacterium tumefaciens. Description: Antibacterial activity against Agrobacterium tumefaciens assessed as inhibition of crown gall tumor initiation at 1 mg/ml. The test is classed as functional.
The test system of test [4] is Escherichia coli. Nature of the test: Antibacterial activity against Escherichia coli assessed as diameter of inhibition zone at 1 mg/ml. The note with it: read-out: DIZ. Format: functional.
The test system of test [5] is Escherichia coli. Description: Bacteriostatic activity against Escherichia coli assessed as growth inhibition at 8 ug/ml after 24 hrs. Format: functional. Conditions: read-out: GI.
Test [6] concerns Staphylococcus aureus. Nature of the test: Antibacterial activity against Staphylococcus aureus assessed as diameter of inhibition zone at 1 mg/ml. Format: functional. The note with it: read-out: DIZ.
Test [7] concerns Staphylococcus aureus. Description: Antibacterial activity against Staphylococcus aureus after 24 hrs. Format: functional.
For test [8], the system named is Neisseria gonorrhoeae. Description: Antibacterial activity against Neisseria gonorrhoeae. Format: functional.
Test [9] deals with Escherichia coli. Description: Antibacterial activity against Escherichia coli. The test is classed as functional.
For test [10], the system named is Pseudomonas aeruginosa. Description: Antibacterial activity against Pseudomonas aeruginosa assessed as diameter of inhibition zone at 3 mg/ml. Format: functional. Conditions: read-out: DIZ.
In test [11] the test system is Flavobacterium columnare. Description: Antibacterial activity against Flavobacterium columnare ALM-00-173. Format: functional.
The test system of test [12] is Rhodococcus fascians. Nature of the test: Antibacterial activity against Corynebacterium fascians assessed as diameter of inhibition zone at 10 mM after 48 to 72 hrs by paper disc method. The note with it: Rhodococcoides fascians; read-out: DIZ. Format: functional.
Test [13] relates to Pseudomonas aeruginosa. Nature of the test: Antibacterial activity against Pseudomonas aeruginosa. The test is classed as functional.
Test [14] deals with Edwardsiella ictaluri. Nature of the test: Antibacterial activity against Edwardsiella ictaluri after 24 hrs. The test is classed as functional.
Test [15] concerns Flavobacterium columnare. Description: Antibacterial activity against Flavobacterium columnare ALM-00-173 after 24 hrs. Format: functional. Conditions: ALM-00-173, 24 h.
For test [16], the system named is Flavobacterium columnare. Nature of the test: Antibacterial activity against Flavobacterium columnare BioMed. Format: functional.
Test [17] deals with Flavobacterium columnare. Description: Antibacterial activity against Flavobacterium columnare BioMed after 24 hrs. Format: functional.
In test [18] the test system is Staphylococcus aureus. Description: Antibacterial activity against Staphylococcus aureus. Format: functional.
Test [19] deals with Staphylococcus aureus. Description: Antibacterial activity against Staphylococcus aureus incubated overnight by two-fold serial dilution method. The test is classed as functional.
Test [20] has as its system Escherichia coli. Description: Antibacterial activity against Escherichia coli incubated overnight by two-fold serial dilution method. The test is classed as functional.
Test [21] has as its system Bacillus subtilis. Nature of the test: Antibacterial activity against Bacillus subtilis incubated overnight by two-fold serial dilution method. The test is classed as functional.
Test [22] has as its system Klebsiella pneumoniae. Nature of the test: Antibacterial activity against Klebsiella pneumoniae incubated overnight by two-fold serial dilution method. The test is classed as functional.
For test [23], the system named is Staphylococcus aureus. Description: Antibacterial activity against Staphylococcus aureus by agar dilution method. Format: functional.
Test [24] concerns Escherichia coli. Nature of the test: Antibacterial activity against Escherichia coli by agar dilution method. The test is classed as functional. On the technique in general: Agar dilution tests growth on a series of plates holding different concentrations.
The test system of test [25] is Pseudomonas aeruginosa. Nature of the test: Antibacterial activity against Pseudomonas aeruginosa assessed as diameter of inhibition zone at 20 mg/ml. The note with it: read-out: DIZ. Format: functional.
Test [26] has as its system Staphylococcus aureus. Nature of the test: Antibacterial activity against Staphylococcus aureus assessed as diameter of inhibition zone at 20 mg/ml. Conditions: read-out: DIZ. Format: functional.
In test [27] the test system is Salmonella typhi. Description: Antibacterial activity against Salmonella typhi assessed as diameter of inhibition zone at 20 mg/ml. The test is classed as functional, Salmonella enterica subsp. enterica serovar Typhi. Conditions: Salmonella enterica; read-out: DIZ.
Test [28] has as its system Escherichia coli. Description: Antibacterial activity against Escherichia coli assessed as diameter of inhibition zone at 20 mg/ml. Format: functional. The note with it: read-out: DIZ.
The test system of test [29] is Helicobacter pylori. Description: Antibacterial activity against Helicobacter pylori assessed as diameter of inhibition zone at 1 mg/ml. The test is classed as functional. Conditions: read-out: DIZ.
Test [30] has as its system Klebsiella pneumoniae. Description: Antibacterial activity against Klebsiella pneumoniae assessed as diameter of inhibition zone at 20 mg/ml. The test is classed as functional. The note with it: read-out: DIZ.

Converted amounts (≈) assume the structure as drawn.

For the molecule `O[C@@H]1C=C[C@]23CCN(Cc4cc5c(cc42)OCO5)[C@H]3C1` [VITTATINE], the zone of inhibition at 3000 µg/mL in test [1] was 22 mm; in test [2], 19 mm.

A word on the inhibition: it is the percentage by which the read-out fell short of the control. Consider `O=C1N[C@@H]2C(=C[C@H](O)[C@@H](O)[C@H]2O[C@@H]2O[C@H](CO)[C@@H](O)[C@H](O)[C@H]2O)c2cc3c(c(O)c21)OCO3`, for which the inhibition at 1000 µg/mL in test [3] was determined as 53%.

For the molecule `O=C1N[C@@H]2C(=C[C@H](O)[C@@H](O)[C@H]2O)c2cc3c(c(O)c21)OCO3` [NARCICLASINE], the zone of inhibition at 1000 µg/mL in test [4] was determined as 13 mm; in test [6] it was 11 mm. Moreover, the inhibition of growth at 8 µg/mL in test [5] came out at 50%. Besides, the inhibition at 1000 µg/mL in [3] stood at 62%.

As usually defined, the MIC is the lowest concentration that inhibits growth of the organism. A higher MIC goes with weaker potency. The molecule `COc1cc2c(cc1OC)[C@@H]1[C@@H](OC2=O)[C@@H](O)C[C@H]2CCN(C)[C@H]21.Cl` showed a minimum inhibitory concentration (MIC) in test [7] above 37 µg/mL.

In turn, `CC1(C)O[C@@H]2[C@H]3OS(=O)(=O)O[C@H]3[C@]3(O)c4cc5c(c(O)c4C(=O)N[C@H]3[C@@H]2O1)OCO5` returned a minimum inhibitory concentration (MIC) in test [8] of 32 to 64 µg/mL (≈ 72.2 to 144 µM).

As to `O=C(O[C@H]1[C@@H](O)[C@@H](O)[C@@H]2NC(=O)c3c(cc4c(c3O)OCO4)[C@@]2(O)[C@@H]1O)c1ccccc1`, in [8], the minimum inhibitory concentration (MIC) fell in the range of 32 to 64 µg/mL (≈ 71.8 to 144 µM).

In the case of `O[C@@H]1CC=C2CCN3Cc4cc5c(cc4[C@H]1[C@@H]23)OCO5` [CARANINE], the MIC in test [9] turned out to be 2050 µg/mL (≈ 7550 µM).

Take `O[C@H]1C=C2[C@H]3CN(Cc4cc5c(cc43)OCO5)[C@H]2C[C@@H]1O`: the zone of inhibition at 3000 µg/mL in test [10] stood at 16 mm; in test [2], 22 mm.

In the case of `[O-]c1cc2c3c(c1)c1cc4c(cc1c[n+]3CC2)OCO4` [UNGEREMINE], the MIC in test [11] is 3 µg/mL (≈ 11.3 µM); in test [9] it was 25 to 50 µg/mL (≈ 94.2 to 188 µM); in [13] it was 125 to 250 µg/mL (≈ 471 to 942 µM); in test [14] it was 3 µg/mL (≈ 11.3 µM); in test [15] it was 1 µM (≈ 0.265 µg/mL); in test [16], 3 µg/mL (≈ 11.3 µM). Further, the figures for the MIC in test [17] and in test [18] were 1 µM (≈ 0.265 µg/mL) and 25 to 265 µg/mL (≈ 94.2 to 999 µM), respectively. Also, the zone of inhibition at 10000 µM in [12] came to 15 mm.

In the case of `COc1c2c(cc3c1OCO3)[C@]13C=C[C@H](OC)C[C@H]1N(CC3)C2` [BUPHANIDRINE], the minimal inhibitory concentration (MIC) in test [19] amounted to 63 µg/mL (≈ 200 µM); in [20] it was 63 µg/mL (≈ 200 µM); in test [21], 130 µg/mL (≈ 412 µM); in test [22] it was 63 µg/mL (≈ 200 µM).

As to `CCCCCCCCCCCCCCCCC/C=C/CCC[C@@H](O)[C@@H](O)C(CO)N(C(=O)[C@H](O)CCCCCCCCCCCCCCC)C(O)CO` (some centres undefined), the minimal inhibitory concentration (MIC) came out at 30 µg/mL (≈ 39.7 µM) in [23] and 50 µg/mL (≈ 66.1 µM) in test [24].

For the molecule `CC[C@H](CC[C@@H](C)[C@H]1CC[C@H]2[C@@H]3CC=C4C[C@@H](O[C@@H]5O[C@H](CO)[C@@H](O)[C@H](O)[C@H]5O)CC[C@]4(C)[C@H]3CC[C@]12C)C(C)C` [SITOGLUSIDE], the zone of inhibition at 20000 µg/mL in [25] was found to be 7 mm; in test [26], 7 mm; in test [27] it was 8 mm; in test [28], 9 mm; in test [30], 8 mm. For the same molecule, the zone of inhibition at 1000 µg/mL in test [4] amounted to 14 mm; in test [29], 9 mm; in [6], 9 mm.

On to `CC1(C)S[C@@H]2[C@H](NC(=O)Cc3ccccc3)C(=O)N2[C@H]1C(=O)O` [PENICILLIN G], for which the zone of inhibition at 1000 µg/mL in test [4] stood at 25 mm; in test [6] it was 28 mm. Also, the MIC in test [23] was found to be 0.46 µg/mL (≈ 1.38 µM); in test [24], 0.77 µg/mL (≈ 2.3 µM).

Turning to `COC1=C[C@@H]2CCN3Cc4cc5c(cc4[C@@H]([C@H]23)[C@@H]1O)OCO5` [AMARBELLISINE], the zone of inhibition at 3000 µg/mL in [1] and in [2] was 22 mm throughout.

In the case of `COC1=CC(=O)[C@@]23CCN(Cc4c2cc2c(c4OC)OCO2)[C@@H]3C1` [DISTICHAMINE], the minimum inhibitory concentration (MIC) in [19] came to 63 µg/mL (≈ 191 µM); in test [20] it was 63 µg/mL (≈ 191 µM); in test [21], 130 µg/mL (≈ 395 µM); in test [22], 63 µg/mL (≈ 191 µM).

In test [8], `CC(=O)Oc1c2c(cc3c1C(=O)N[C@@H]1C3=C[C@H](OC(C)=O)[C@@H](OC(C)=O)[C@H]1OC(C)=O)OCO2` yielded a minimal inhibitory concentration (MIC) of 32 to 64 µg/mL (≈ 67.3 to 135 µM).

On to `O=c1c2cc3c(cc2c2cccc4ccn1c42)OCO3`, for which the zone of inhibition at 20000 µg/mL in [26] and in test [28] was 7 mm each time.
